The subject of one data set is MyC-CaP prostate tumors. Briefly: Growth of subcutaneous MyC-CaP prostate tumors in FVB male mice. Conditions: ASO 12.5 mg/kg intraperitoneal, n=6. It is filed as in vivo. Here is the method:
(§1) FIGS. 19A-19B. FOXA1 ASOs sensitize prostate cancer to anti-PD-L1 immunotherapy in mice. (FIG. 19A) Western blot analysis of Foxal protein in MyC-CaP mouse prostate cancer cells at 48 hours after transfection with control ASO (Con ASO), Foxal gene specific ASO1, or Foxa1 gene specific ASO2. Erk2 was used as a loading control. (FIG. 19B) Growth of subcutaneous MyC-CaP prostate tumors in wild type intact FVB male mice. Mice were treated with anti-PD-L1 or non-specific IgG (10 mg/kg) in combination with control ASO (Con ASO) (12.5 mg/kg), Foxal ASO1 (12.5 mg/kg), or Foxa1 ASO2 (12.5 mg/kg) for the indicated number of days. Data shown as means ±s.d. (n=6). Statistical significance was determined by two-way ANOVA (* P<0.05; ** P <0.01; *** P <0.0001).
MyC-CaP cells (3×10^6) were injected subcutaneously into the right flank of 6-week-old wild-type intact FVB male mice. When the average tumor volume reached approximately 100 mm^3, mice were randomized into groups subsequently treated with intraperitoneal injection of anti-PD-L1 or non-specific control IgG (10 mg/kg) in combination with control antisense oligonucleotides (12.5 mg/kg), Foxal ASO1 (12.5 mg/kg), or Foxal-ASO2 (12.5 mg/kg).
Thirty six 6-week-old wild-type intact FVB mice were purchased from Jackson Laboratories (Bar Harbor, Me.). Tumor volume was measured by digital caliper and calculated using a formula of length×width×width×0.5.

A further data set concerns Foxa1 protein. As to the kind of experiment: Western blot analysis of Foxa1 protein in MyC-CaP cells after ASO transfection. The class given is cell-based. Conditions: MyC-CaP murine prostate cancer cells, 48 hours after transfection, vs control ASO. The method, then:
as §1
MyC-CaP murine prostate cancer cells were transfected with control ASO (Con ASO) or two Foxal-specific ASOs (Foxal ASO1 and Foxal ASO2).
The MyC-CaP murine prostate cancer cell line, originally derived from prostate tumors of Hi-Myc transgenic mice in FVB genetic background, was purchased from ATCC (Manassas, Va.).
Antibodies used include anti-FOXA1 antibody (# ab23738, Abcam), anti-ERK2 (# sc-1647, Santa Cruz Biotechnology), anti-mouse PD-L1 mAb (clone 10B5), and InVivoMAb mouse IgG1 isotype control (clone MOPC-21) (# BE0083, Bio X Cell).

The test system of data set [1] is TRAMP-C2 tumors. As to the kind of experiment: Growth and survival of TRAMP-C2 prostate tumors in syngeneic C57BL/6 mice treated intratumorally with Poly(I:C). It is filed as in vivo. From the text:
(§2) FIGS. 13A-13H. FOXA1 overexpression confers cancer immuno- and chemo-therapy resistance in mice and patients. FIG. 13A) Schematic diagram of generation and Poly(I:C) treatment of TRAMP-C2 prostate tumors in syngeneic mice. FIG. 13B) Growth of TRAMP-C2-Vector and TRAMP-C2-FOXA1ΔαH3 tumors treated with or without Poly(I:C). FIG. 13C) Tumor-free survival of syngeneic mice bearing TRAMP-C2-Vector or TRAMP-C2-FOXA1ΔαH3 tumors administrated with or without Poly(I:C). Statistical significance was determined by Log-rank (Mantel-Cox) test. FIGS. 13D and 13E) PhenoGraph-defined cellular distribution and clustering, as defined by tSNE1 and tSNE2, colored by cellular phenotypes in TRAMP-C2-Vector and TRAMP-C2-FOXA1ΔαH3 tumors from mice at 16 days post vehicle or Poly(I:C) treatment (FIG. 13D). Data were derived from all normalized viable single cells, subjected to the PhenoGraph algorithm. Data in the bar graphs (FIG. 13E) are means ±s.d, n=3. […] Statistical significance was determined by unpaired two-tailed Student's t tests in FIGS. 13E, 13F and 13G. FIG. 13H) Progression-free survival of patients with FOXA1-expression low or high urothelial carcinoma treated with anti-PD1 immunotherapy. Statistical significance was determined by Log-rank (Mantel-Cox) test.
To directly explore the role of FOXA1 in inhibiting cancer immune response, stable murine prostate cancer TRAMP-C2 cell lines overexpressing FOXA1-WT, cancer-associated mutant FOXA1-R261G and DNA binding-deficient mutant FOXA1ΔαH3, were established. […]
TRAMP-C2-Vector or TRAMP-C2-FOXA1ΔαH3 cells (3×10^6) were injected subcutaneously into the right flank of 8-week old male C57BL/6 on day 0. Tumors were measured twice per week with calipers and the volume calculated (length×width×width×0.5). Poly I:C (2.5 mg/kg, 100 pl) purchased from Sigma-Aldrich (# P1530) or vehicle (PBS, 100 pl) was administered by intratumoral injection twice per week (five doses in total) and tumors were measured twice per week until the tumor volume reached the maximum allowed size ([…]). […]

Data set [2] concerns TRAMP-C2 tumors. As to the kind of experiment: CyTOF analysis of immune cells in TRAMP-C2 tumors after Poly(I:C). The class given is in vivo, mice.
Text: as §2
TRAMP-C2-Vector or TRAMP-C2-FOXA1ΔαH3 cells (3×10^6) were injected subcutaneously into the right flank of 8-week old male C57BL/6 on day 0. Tumors were measured twice per week with calipers and the volume calculated (length×width×width×0.5). Poly I:C (2.5 mg/kg, 100 pl) purchased from Sigma-Aldrich (# P1530) or vehicle (PBS, 100 pl) was administered by intratumoral injection twice per week (five doses in total) and tumors were measured twice per week until the tumor volume reached the maximum allowed size ([…]). For CyTOF and Immunofluorescence experiments, mice were euthanized at 48 hours post the last administration.
Single tumor cells were isolated using the Mouse Tumor Dissociation Kit (Miltenyi Biotec, # 130-096-730) following standard protocol. CyTOF staining panels are detailed in Table 3. […]

A further data set has as its target T1, STAT2 (human, UniProt P52630 1-851).
T1 construct: also called endogenous STAT2
Briefly: co-IP of ectopically expressed proteins in 293T cells (FIG. 11E). The method, then: For extraction of nuclear and cytoplasmic proteins from cells, NE-PER Nuclear and Cytoplasmic Extraction Kit (# 78835, Thermo Fisher Scientific) was used according to the manufacturer's instructions. IP buffer (50 mM Tris-HCl pH7.5, 150 mM NaCl, 1% NP40, 0.5% Sodium Deoxycholate) was used to extract whole cell lysate. P rotein A/G agarose (# 20421, Thermo Fisher Scientific) was used for immunoprecipitation of FOXA1 (# ab23738, Abcam) and Flag-tag (dilution 1:1000; # F1804, Sigma-Aldrich). Monoclonal anti-HA agarose (# A2095, Sigma-Aldrich) was used for HA-tag Co-IP. For glutathione-S-transferase (GST) pulldown assay, GST-tagged STAT2 fragment expressed at E. coli was purified by Glutathione Sepharose 4B beads (# 84-239, Genesee Scientific) and incubated with lysate from 293T cells expressing interested proteins, and GST pulldown assays were performed. For protein co-IP, samples eluted in IP butter were incubated with agarose beads and antibodies overnight at 4° C. and washed with 6 times with IP buffer in the following day. Samples were boiled for 10 minutes in 50 μl sample buffer (2% SDS, 10% glycerol, 10% β-mercaptoethanol, bromophenol blue and Tris-HCl, pH 6.8) and subjected to Western blotting.

l = locked nucleic acid (LNA); d = 2'-deoxy (DNA)

Results on six molecules are retold here after patent US20230079757A1, “METHODS AND MATERIALS FOR TREATING CANCER” (Mayo Foundation for Medical Education and Research, priority 2020, published 2023).

T1 sequence (P52630 whole entry): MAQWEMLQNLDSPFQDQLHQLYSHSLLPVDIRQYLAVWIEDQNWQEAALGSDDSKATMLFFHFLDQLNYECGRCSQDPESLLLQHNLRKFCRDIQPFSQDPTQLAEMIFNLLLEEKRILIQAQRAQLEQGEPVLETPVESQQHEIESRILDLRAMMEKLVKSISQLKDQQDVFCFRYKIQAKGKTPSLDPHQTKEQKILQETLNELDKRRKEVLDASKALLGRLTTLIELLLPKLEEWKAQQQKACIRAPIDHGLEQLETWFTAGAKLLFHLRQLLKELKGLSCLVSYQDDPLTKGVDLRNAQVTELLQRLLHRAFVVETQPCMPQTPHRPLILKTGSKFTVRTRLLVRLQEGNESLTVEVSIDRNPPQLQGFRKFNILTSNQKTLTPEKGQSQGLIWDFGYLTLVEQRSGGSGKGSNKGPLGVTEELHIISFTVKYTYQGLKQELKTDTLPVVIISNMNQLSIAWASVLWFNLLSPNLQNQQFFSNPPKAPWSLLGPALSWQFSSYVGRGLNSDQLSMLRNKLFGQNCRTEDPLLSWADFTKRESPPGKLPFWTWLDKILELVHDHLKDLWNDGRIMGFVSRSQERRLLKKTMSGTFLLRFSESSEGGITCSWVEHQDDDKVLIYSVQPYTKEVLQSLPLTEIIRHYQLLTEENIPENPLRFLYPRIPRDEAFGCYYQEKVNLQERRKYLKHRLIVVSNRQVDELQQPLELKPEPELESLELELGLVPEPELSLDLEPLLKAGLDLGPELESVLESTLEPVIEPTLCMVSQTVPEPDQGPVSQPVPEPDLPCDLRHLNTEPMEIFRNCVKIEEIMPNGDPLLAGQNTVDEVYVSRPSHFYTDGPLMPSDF

With “Foxa1 ASO1: LNA/PS antisense oligo +G*+G*+T*A*G*C*G*C*C*A*T*A*A*G*G*A*G*+A*+G*+T (SEQ ID NO: 42) (antisense GGTAGCGCCATAAGGAGAGT; sugars from the 5' end l3 d14 l3, all phosphorothioate, methylation of C not given here)”, in the data set with MyC-CaP prostate tumors, the tumor growth result is “significantly inhibited tumor growth”. Besides, the Foxa1 protein knockdown result with Foxa1 protein is “substantially knocked down”.
With “Foxa1 ASO2: LNA/PS antisense oligo +T*+G*+G*A*T*G*G*C*C*A*T*C*G*+T*+G*+A (SEQ ID NO: 43) (antisense TGGATGGCCATCGTGA; sugars from the 5' end l3 d10 l3, all phosphorothioate, methylation of C not given here)”, the tumor growth entry in the data set with MyC-CaP prostate tumors is listed as “significantly inhibited tumor growth”. The Foxa1 protein knockdown entry in the data set on Foxa1 protein is “substantially knocked down”.
For the molecule Poly(I:C), the tumor growth-inhibitory effect entry with TRAMP-C2 tumors [1] (TRAMP-C2-FOXA1ΔαH3 tumors, Poly I:C 2.5 mg/kg intratumoral) is recorded as “largely diminished”. The overall mouse survival entry in the data set on TRAMP-C2 tumors [1] (TRAMP-C2-Vector tumors, Poly I:C 2.5 mg/kg intratumoral) is reported as “prolonged”. Besides, in the data set with TRAMP-C2 tumors [1] (TRAMP-C2-Vector tumors, Poly I:C 2.5 mg/kg intratumoral twice per week, five doses), the tumor growth entry is given as “decreased the growth”. In addition, the “TILs, especially CD8+ T and NK cells” value in the data set with TRAMP-C2 tumors [2] (TRAMP-C2-FOXA1ΔαH3 tumors) is given as “such effect was diminished”. In addition, in the data set on TRAMP-C2 tumors [2] (TRAMP-C2-Vector tumors), the “CD11b+Gr1+ myeloid-derived suppressor cells (MDSCs)” value is listed as “reduced”; the “TILs, especially CD8+ T and NK cells” value was “discernibly increased”.

B1: FOXA1-F266L (other, UniProt P55317 1-472, looked up)
chain: MLGTVKMEGHETSDWNSYYADTQEAYSSVPVSNMNSGLGSMNSMNTYMTMNTMTTSGNMTPASFNMSYANPGLGAGLSPGAVAGMPGGSAGAMNSMTAAGVTAMGTALSPSGMGAMGAQQAASMNGLGPYAAAMNPCMSPMAYAPSNLGRSRAGGGGDAKTFKRSYPHAKPPYSYISLITMAIQQAPSKMLTLSEIYQWIMDLFPYYRQNQQRWQNSIRHSLSFNDCFVKVARSPDKPGKGSYWTLHPDSGNMFENGCYLRRQKRLKCEKQPGAGGGGGSGSGGSGAKGGPESRKDPSGASNPSADSPLHRGVHGKTGQLEGAPAPGPAASPQTLDHSGATATGGASELKTPASSTAPPISSGPGALASVPASHPAHGLAPHESQLHLKGDPHYSFNHPFSINNLMSSSEQQHKLDFKAYEQALQYSPYGSTLPASLPLGSASVTTRSPIEPSALEPAYYQGVYSRPVLNTS
notes: Ectopically expressed in 293T cells
As for B1, in the data set with STAT2, the binding result is listed as “binds”.

B2: FOXA1-R261G (other, UniProt P55317 1-472, looked up)
chain: MLGTVKMEGHETSDWNSYYADTQEAYSSVPVSNMNSGLGSMNSMNTYMTMNTMTTSGNMTPASFNMSYANPGLGAGLSPGAVAGMPGGSAGAMNSMTAAGVTAMGTALSPSGMGAMGAQQAASMNGLGPYAAAMNPCMSPMAYAPSNLGRSRAGGGGDAKTFKRSYPHAKPPYSYISLITMAIQQAPSKMLTLSEIYQWIMDLFPYYRQNQQRWQNSIRHSLSFNDCFVKVARSPDKPGKGSYWTLHPDSGNMFENGCYLGRQKRFKCEKQPGAGGGGGSGSGGSGAKGGPESRKDPSGASNPSADSPLHRGVHGKTGQLEGAPAPGPAASPQTLDHSGATATGGASELKTPASSTAPPISSGPGALASVPASHPAHGLAPHESQLHLKGDPHYSFNHPFSINNLMSSSEQQHKLDFKAYEQALQYSPYGSTLPASLPLGSASVTTRSPIEPSALEPAYYQGVYSRPVLNTS
notes: as for B1
As for B2, in the data set with STAT2, the binding result is recorded as “binds”.

B3: FOXA1-H247Q (other, UniProt P55317 1-472, looked up)
chain: MLGTVKMEGHETSDWNSYYADTQEAYSSVPVSNMNSGLGSMNSMNTYMTMNTMTTSGNMTPASFNMSYANPGLGAGLSPGAVAGMPGGSAGAMNSMTAAGVTAMGTALSPSGMGAMGAQQAASMNGLGPYAAAMNPCMSPMAYAPSNLGRSRAGGGGDAKTFKRSYPHAKPPYSYISLITMAIQQAPSKMLTLSEIYQWIMDLFPYYRQNQQRWQNSIRHSLSFNDCFVKVARSPDKPGKGSYWTLQPDSGNMFENGCYLRRQKRFKCEKQPGAGGGGGSGSGGSGAKGGPESRKDPSGASNPSADSPLHRGVHGKTGQLEGAPAPGPAASPQTLDHSGATATGGASELKTPASSTAPPISSGPGALASVPASHPAHGLAPHESQLHLKGDPHYSFNHPFSINNLMSSSEQQHKLDFKAYEQALQYSPYGSTLPASLPLGSASVTTRSPIEPSALEPAYYQGVYSRPVLNTS
notes: as for B1
As for B3, in the data set with STAT2, the binding result is reported as “binds”.
